The target in experiment [1] is T1, TCF4-CTNNB1 complex (Homo sapiens, UniProt P35222).
T1 sequence (P35222 whole entry): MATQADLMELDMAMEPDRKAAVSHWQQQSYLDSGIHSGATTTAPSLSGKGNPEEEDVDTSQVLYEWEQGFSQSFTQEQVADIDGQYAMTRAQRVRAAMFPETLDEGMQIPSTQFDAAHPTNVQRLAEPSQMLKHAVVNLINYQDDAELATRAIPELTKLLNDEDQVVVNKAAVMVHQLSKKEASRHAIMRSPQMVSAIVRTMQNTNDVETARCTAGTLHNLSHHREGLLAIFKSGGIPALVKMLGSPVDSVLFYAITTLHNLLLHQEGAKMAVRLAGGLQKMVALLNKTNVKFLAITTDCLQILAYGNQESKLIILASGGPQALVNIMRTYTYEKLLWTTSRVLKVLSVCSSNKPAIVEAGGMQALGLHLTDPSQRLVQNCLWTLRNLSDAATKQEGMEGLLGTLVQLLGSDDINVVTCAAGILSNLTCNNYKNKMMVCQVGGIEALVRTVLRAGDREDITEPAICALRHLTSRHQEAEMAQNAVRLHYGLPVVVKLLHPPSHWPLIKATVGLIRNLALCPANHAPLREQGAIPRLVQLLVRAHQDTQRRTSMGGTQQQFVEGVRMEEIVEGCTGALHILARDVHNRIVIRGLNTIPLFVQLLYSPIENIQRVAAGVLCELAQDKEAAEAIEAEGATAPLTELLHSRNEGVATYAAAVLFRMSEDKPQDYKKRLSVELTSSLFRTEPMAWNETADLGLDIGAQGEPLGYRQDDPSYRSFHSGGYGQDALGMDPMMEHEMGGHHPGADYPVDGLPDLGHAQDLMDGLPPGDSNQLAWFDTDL
T1 sequence (P15884 whole entry): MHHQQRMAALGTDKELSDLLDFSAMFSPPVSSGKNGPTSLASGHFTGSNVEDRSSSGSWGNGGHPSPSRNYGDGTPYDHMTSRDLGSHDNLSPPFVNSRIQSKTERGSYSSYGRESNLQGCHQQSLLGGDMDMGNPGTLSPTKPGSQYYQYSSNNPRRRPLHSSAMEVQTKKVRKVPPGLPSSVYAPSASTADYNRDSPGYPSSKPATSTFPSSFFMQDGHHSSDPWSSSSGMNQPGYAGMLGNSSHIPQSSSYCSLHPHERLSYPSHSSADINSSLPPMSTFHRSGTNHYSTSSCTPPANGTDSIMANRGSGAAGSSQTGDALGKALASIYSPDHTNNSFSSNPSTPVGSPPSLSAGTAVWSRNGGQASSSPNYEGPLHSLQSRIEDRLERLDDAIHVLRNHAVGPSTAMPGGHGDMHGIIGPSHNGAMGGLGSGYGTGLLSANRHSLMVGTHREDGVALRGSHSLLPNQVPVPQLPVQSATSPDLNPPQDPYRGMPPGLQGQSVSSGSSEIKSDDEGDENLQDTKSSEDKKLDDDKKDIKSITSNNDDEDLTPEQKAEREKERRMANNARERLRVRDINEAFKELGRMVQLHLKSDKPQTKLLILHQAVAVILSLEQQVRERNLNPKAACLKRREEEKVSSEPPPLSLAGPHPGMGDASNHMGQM
Description: Inhibition of His-tagged beta-catenin (134 to 668 residues)/CM-5 sensor chip immobilized N-terminal GST-tagged TCF4 interaction (unknown origin) preincubated with beta-catenin for 15 mins followed by TCF4 addition measured after 60 secs by SPR analysis. It counts as protein-complex assay. A general note: Surface plasmon resonance follows binding to a sensor surface in real time, without labels.

Experiment [2] in a line: Antiproliferative activity against human LNCaP-abl cells assessed as inhibition of cell proliferation incubated for 5 days by Cell Titer-Fluor assay. The following applies: 120 h. It counts as functional, cell-based.
Experiment [3] can be described thus: Antiproliferative activity against human LNCaP-95 cells assessed as inhibition of cell proliferation incubated for 5 days by Cell Titer-Fluor assay. It is filed as functional, cell-based. Conditions: LNCaP-95, 120 h.
The nature of experiment [4]: Inhibition of Wnt reporter activity in human HeLa cells by cell based assay.
Experiment [5] in a line: Inhibition of Wnt reporter activity in human SW480 cells by cell based assay. It counts as functional.

Results on 4 compounds are retold here after ChEMBL document CHEMBL5104134, “Targeting the interaction of β-catenin and TCF/LEF transcription factors to inhibit oncogenic Wnt signaling” (Bioorg Med Chem, 2022).

Starred links: 1 amine or outer side, 2 acyl side, 3 side chain; linkers in the order of their positions; H or OH if unused. Positions of bridges follow the written chain, without caps; N, C: chain ends. Non-standard residues stand in square brackets, D forms with d. Residues, ends and D or L forms follow the SMILES beside them. X1 = C(=C\[*:2])/CC[*:1]; βAla = NCCC(=O)O

A word on the IC50: it is the concentration that inhibits the measured activity by half.

Take `CCc1ccc(OCc2nnc(SC3CCCC3=O)n2C(C)c2ccccc2)cc1` (stereo not given): the IC50 in experiment [1] stood at 24 µM.

For the compound `COc1cc(OC)cc(N2CC(=O)N(CCCOC(C)C)CC(=O)N(C(C)c3ccc(O)cc3)CC(=O)N(C(C)c3ccc(O)cc3)CC(=O)N[C@H](C)C(=O)N(CCc3ccccc3Oc3ccccc3)CC2=O)c1` (stereo not given in full), the values for the IC50 in experiment [2] and in experiment [3] were 0.2 µM and 0.8 µM, respectively.

Consider `CC(C)C[C@@H]1NC(=O)[C@H](CC(C)C)NC(=O)[C@H](CO)NC(=O)[C@H](CC(=O)O)NC(=O)[C@@H]2CCCN2C(=O)[C@@H]2CCCN2C(=O)[C@H](C(C)C)NC(=O)[C@H](CC(=O)O)NC(=O)[C@H](CC(N)=O)NC(=O)[C@H](CCCNC(=N)N)NC(=O)[C@@H]2CS/C=C/CCSC[C@H](NC1=O)C(=O)N[C@@H](Cc1ccccc1)C(=O)NCCC(=O)NCCC(=O)N[C@@H](C(C)C)C(=O)N2` (cyclo(CF[βAla][βAla]VCRNDVPPDSLL); linker 1-6 via X1), for which the IC50 in experiment [4] was determined as 8 µM.

In turn, `CCOC(=O)C[C@@H](NC(=O)[C@@H](Cc1ccc2ccccc2c1)NC(=O)Cc1cc2cc(Cl)ccc2[nH]1)C(=O)N[C@H](CC(=O)OCC)C(=O)OC` returned an IC50 in experiment [5] of 29 µM.
